Laboratory results: patent US11236052B2, “Aminobenzimidazole derivatives, treatments, and methods of inhibiting histone deacetylase” (TRANSLATIONAL DRUG DEVELOPMENT, LLC, priority 2017, dated 2022)

Key:
MDA468 = experiment: CellTiter-Glo cell viability assay, MDA468; type: cell-based; conditions: Breast; for IC50: MDA468, 72 hours
Description: (§1) Cell Viability Assay—Cell viability was measured by the CellTiter-Glo® cell viability assay Promega (Madison, Wis.). The CellTiter-Glo® Luminescent Cell Viability Assay is a homogeneous method to determine the number of viable cells in culture based on quantitation of the ATP present, which signals the presence of metabolically active cells. Following treatment, CellTiter-Glo® is added to treatment wells and incubated at 37° C. luminescence values were measured at using a Molecular Devices Spectramax microplate reader.
(§2) Single Agent Studies—Cells were grown to 70% confluency, trypsinized, counted, and seeded in 96 well flat-bottom plates at a final concentration of 2.5×10^3-5×10^3 cells/well (Day 0). Cells were allowed to incubate in growth media for 24 hours. Treatment with the test agents began on Day 1 and continued for 72 hours. At the 72-hour time point, treatment-containing media was removed. Viable cell numbers are quantified by the CellTiter-Glo® cell viability assay as described above. Experiments were run with triplicate concentrations to determine growth inhibitory activity. Results from these studies were used to calculate an IC50 value (concentration of drug that inhibits cell growth by 50 percent of control) for each compound.
(§3) Data Collection—For single agent and combination studies, data from each experiment was collected and expressed as % Cell Growth using the following calculation: % Cell Growth=(ftest/fvehicle)×100
(§4) Where ftest is the luminescence of the tested sample, and fvehicle is the luminescence of the vehicle in which the drug is dissolved. Dose response graphs and IC50 values were generated using Prism 6 software (GraphPad).

SKUT-1 = experiment: CellTiter-Glo cell viability assay, SKUT-1; type: cell-based; conditions: Uterine; for IC50: Homo sapiens, SK-UT-1, SKUT-1, 72 hours
Description: as §1, §2, §3, §4

MFE296 = experiment: CellTiter-Glo cell viability assay, MFE296; type: cell-based; conditions: Uterine; for IC50: Homo sapiens, MFE-296, MFE296, 72 hours
Description: as §1, §2, §3, §4

RPMI-8226 = experiment: CellTiter-Glo cell viability assay, RPMI-8226; type: cell-based; conditions: Myeloma; for IC50: Homo sapiens, RPMI-8226, 72 hours
Description: as §1, §2, §3, §4

BC-1 = experiment: CellTiter-Glo cell viability assay, BC-1; type: cell-based; conditions: Lymphoma; for IC50: Homo sapiens, BC1, BC-1, 72 hours
Description: as §1, §2, §3, §4

Toledo = experiment: CellTiter-Glo cell viability assay, Toledo; type: cell-based; conditions: Lymphoma; for IC50: Homo sapiens, 72 hours
Description: as §1, §2, §3, §4

H460 = experiment: CellTiter-Glo cell viability assay, H460; type: cell-based; conditions: NSCLC; for IC50: Homo sapiens, NCI-H460, H460, 72 hours
Description: as §1, §2, §3, §4

ES2 = experiment: CellTiter-Glo cell viability assay, ES2; type: cell-based; conditions: Ovarian; for IC50: Homo sapiens, ES-2, ES2, 72 hours
Description: as §1, §2, §3, §4

Permeability (PAMPA) = type: in vitro ADME; conditions: read-out: Permeabiltiy (PAMPA)
% PPB, mouse = type: in vitro ADME; conditions: plasma; mouse (m)
% PPB, rat = type: in vitro ADME; conditions: plasma; rat (r)
% PPB, human = type: in vitro ADME; conditions: plasma; human (hu)
[1] = tested on: MM1.S human myeloma cells; experiment: Human MM1.S xenograft model, single agent screening; type: in vivo, mice; conditions: 100 mg/kg daily for 19 days, oral gavage; compared to Compound ID #2 or Compound ID #3
Description: In vivo efficacy studies of Compound ID #1, Compound ID #2, and Compound ID #3 were tested in human MM1.S xenograft model as shown in FIG. 1. […] Group 2 (G2) was treated with Compound ID #1 at 100 mg/kg daily for 19 days. Group 3 (G3) was treated with Compound ID #2 at 100 mg/kg daily for 19 days. Group 4 (G4) was treated with Compound ID #3 at 100 mg/kg daily for 19 days. Vehicle and Compound ID #1, Compound ID #2 and Compound ID #3 were administered orally via oral gavage. Body weights and tumor measurements were collected twice weekly.

[2] = tested on: MM1.S human myeloma cells; experiment: Human MM1.S xenograft model, combination screening with pomalidomide/dexamethasone; type: in vivo, mice; conditions: 100 mg/kg daily for 19 days oral plus pomalidomide 10 mg/kg / dexamethasone 0.3 mg/kg; compared to ID #2 or ID #3 combinations
Description: Group 3 (G3) was treated with Compound ID #1 at 100 mg/kg daily for 19 days. Group 4 (G4) was treated with Compound ID #2 at 100 mg/kg daily for 19 days. Group 5 (G5) was treated with Compound ID #3 at 100 mg/kg daily for 19 days. […] Vehicle and Compound ID #1, Compound ID #2 and Compound ID #3 were administered orally via oral gavage. Body weights and tumor measurements were collected twice weekly.

IC50 (SKUT-1) | IC50 (RPMI-8226) | IC50 (H460) | Papp (Permeability (PAMPA)) | fraction unbound (% PPB, mouse) | fraction unbound (% PPB, rat) | fraction unbound (% PPB, human) | SMILES | IC50 (MDA468) | IC50 (MFE296) | IC50 (BC-1) | IC50 (Toledo) | IC50 (ES2) | other results
9.55 µM | 1.51 µM | 10.5 µM | 2.2 ×10⁻⁶ cm/s | 0.0052 | 0.0055 | 0.0064 | O=C(NO)c1ccc(Nc2nc3ccccc3n2C2CCCCCC2)cc1 [ID #3, 4-((1-cycloheptyl-1H-benzo[d]imidazol-2-yl)amino)-N-hydroxybenzamide] | 9.33 µM | 12.6 µM | 4.93 µM | 3.21 µM | 13.2 µM | 
3.8 µM | 0.66 µM | 3.47 µM | 1.68 ×10⁻⁶ cm/s | 0.0045 | 0.0017 | 0.0056 | O=C(NO)c1ccc(Nc2nc3ccccc3n2CC2CCCCC2)cc1 [ID #1, 4-((1-(cyclohexylmethyl)-1H-benzo[d]imidazol-2-yl)amino)-N-hydroxybenzamide] | 3.86 µM | 4.37 µM | 1.79 µM | 0.81 µM | 3.98 µM | Improvement ID #1 over ID #3 Percent (MDA468; MDA468): 58.63%; Improvement ID #1 over ID #3 fold (MDA468; MDA468): 2.42 fold; Improvement ID #1 over ID #3 Percent (SKUT-1; SKUT-1): 60.21%; Improvement ID #1 over ID #3 fold (SKUT-1; SKUT-1): 2.51 fold; Improvement ID #1 over ID #3 Percent (MFE296; MFE296): 65.29%; Improvement ID #1 over ID #3 fold (MFE296; MFE296): 2.88 fold; Improvement ID #1 over ID #3 Percent (RPMI-8226; RPMI-8226): 56.29%; Improvement ID #1 over ID #3 fold (RPMI-8226; RPMI-8226): 2.29 fold; Improvement ID #1 over ID #3 Percent (BC-1; BC-1): 63.69%; Improvement ID #1 over ID #3 fold (BC-1; BC-1): 2.75 fold; Improvement ID #1 over ID #3 Percent (Toledo): 74.77%; Improvement ID #1 over ID #3 fold (Toledo): 3.96 fold; Improvement ID #1 over ID #3 Percent (H460; H460): 66.86%; Improvement ID #1 over ID #3 fold (H460; H460): 3.02 fold; Improvement ID #1 over ID #3 Percent (ES2; ES2): 69.80%; Improvement ID #1 over ID #3 fold (ES2; ES2): 3.31 fold; anticancer activity (tumor volume) [1]: significantly superior anticancer activity; anticancer activity (tumor volume) when combined with pomalidomide/dexamethasone [2]: significantly superior anticancer activity
